Entries after “also recorded” stand apart in the source; their conditions may differ.
Key:
SARM1 [1] = target: T1, SARM1 (Homo sapiens, UniProt Q6SZW1); conditions: cited from earlier work; for SARM1 activation in in vitro assays: Zhao et al., 2019; for SARM1 activation on binding in the allosteric site (ARM domain): Figley et al.
T1 sequence (Q6SZW1 28-724): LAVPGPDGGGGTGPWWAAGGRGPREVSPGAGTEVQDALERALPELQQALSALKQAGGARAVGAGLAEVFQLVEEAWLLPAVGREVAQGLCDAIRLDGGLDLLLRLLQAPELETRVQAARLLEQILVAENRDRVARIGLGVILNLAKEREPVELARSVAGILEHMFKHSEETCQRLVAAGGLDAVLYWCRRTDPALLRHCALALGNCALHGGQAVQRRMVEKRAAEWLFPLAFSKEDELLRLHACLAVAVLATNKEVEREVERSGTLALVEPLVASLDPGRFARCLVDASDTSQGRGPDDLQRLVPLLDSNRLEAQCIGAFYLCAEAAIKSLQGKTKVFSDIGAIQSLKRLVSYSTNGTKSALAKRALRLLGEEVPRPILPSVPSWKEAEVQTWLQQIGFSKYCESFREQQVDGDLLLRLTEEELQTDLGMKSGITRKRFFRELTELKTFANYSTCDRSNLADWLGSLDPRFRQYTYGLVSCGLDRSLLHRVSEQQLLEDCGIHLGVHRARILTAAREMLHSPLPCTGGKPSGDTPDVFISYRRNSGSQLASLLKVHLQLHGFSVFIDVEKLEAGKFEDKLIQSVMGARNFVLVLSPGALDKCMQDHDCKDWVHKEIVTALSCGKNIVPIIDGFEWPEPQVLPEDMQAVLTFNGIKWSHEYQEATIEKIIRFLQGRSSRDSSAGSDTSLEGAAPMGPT

[2] = tested on: expanded mouse Schwann cells; assay: Cell death in expanded mouse Schwann cells passaged three times (phase contrast, propidium iodide); assay type: cell-based; conditions: 250 μM 3-AP for 72 hours vs water; Schwann cells passaged three times in proliferative medium
Description: Mouse SCs were passaged on PLL/laminin coated dishes in the presence of low serum (0.5% horse serum), 10 ng/ml Bneuregulin1 (BNRG1), and a low concentration cyclic adenosine monophosphate (CAMP) elevating signal, such as 2 μM forskolin or 100 μM dibutryl cAMP (Arthur-Farraj et al., 2011). Full protocol is described in (Mutschler et al., 2023).

[3] = tested on: freshly plated P2 mouse Schwann cells; assay: Cell death in freshly plated P2 mouse Schwann cells (propidium iodide, DAPI, SOX10); assay type: cell-based; conditions: 250 μM 3-AP for 72 hours vs water
Description: (§1) Freshly plated mouse Schwann cells were obtained from P2 sciatic and brachial nerves. Nerves were digested with trypsin and collagenase, centrifuged and plated on laminin/Poly-L-lysine coated glass coverslips in defined medium as previously described (Arthur-Farraj et al., 2011).
Sciatic and optic nerves were dissected from Wt and Sarm1 KO mice and directly embedded in O.C.T. compound, without fixing, and stored at −80° C. until ready for cryosectioning. Cryosections at 5 μm thick were collected onto SuperFrost plus slides. These slides were post-fixed in 4% paraformaldehyde (PFA) at room temperature for 10 mins followed by three washes of 5 mins each with 1×PBS. The slides were then immersed in 100% methanol at −20° C. for 10 mins, followed by three washes of 5 mins each with 1×PBS. The slides were then blocked in 5% horse serum (HS)/0.2% Triton x-100/PBS for 30 mins at room temperature. Primary antibodies were diluted in blocking solution and slides were incubated overnight at 4° C. The following day, the slides were washed once for 5 mins with 1×PBS, twice for 5 mins with 0.1% tween/PBS and finally once again for 5 mins with 1×PBS before adding secondary antibodies. The corresponding secondary antibodies were diluted at 1:500 along with DAPI at 1:2000 for 2 hrs at room temperature and kept in the dark. […]

Schwann cells = assay: Intracellular NAD+ in Schwann cells (NAD-glo assay); assay type: cell-based, mouse; conditions: 250 μM 3AP, 72 hours, compared to DMSO control, listed as 3AP
Description: as §1
[…] Protein was extracted using Pierce™ IP Lysis Buffer supplemented with cOmplete™ Mini EDTA-free Protease Inhibitor Cocktail, and a BCA assay carried out to determine protein concentration. All samples were diluted to 0.5 μg/μL. The NAD-glo assay was performed according to manufacturer's instruction of the NAD^+/NADH-Glo™ assay by Promega (G9071). In short, 25 μL of sample were incubated with 12.5 μL 0.4M HCl at 60° C. for 15 min, before 12.5 μL 0.5M Tris base were added. 10 μL NAD^+ standards or sample were then mixed with 10 μL NAD-glo master mix (1 ml luciferin detection reagent, 5 μl reductase, 5 μl reductase substrate, 5 μl NAD^+ cycling enzyme, 25 μl NAD^+ cycling substrate) and incubated at RT for 40 min. Luminescence was read using a GloMax® Explorer microplate reader and NAD^+ concentrations determined relative to a NAD^+ standard curve.

neuronal cultures = conditions: Loreto et al., 2021, Wu et al.; cited from earlier work
SARM1 [4] = target: T1, SARM1; conditions: Zhao et al., 2019; cited from earlier work

## CC(=O)c1cccnc1 [3-AP, 3-acetylpyridine]
SARM1 [1]; Loreto et al., 2021, Angeletti et al., 2022, Wu et al.
  SARM1 activity on interaction with active site (TIR domain) for base exchange reaction: increase in SARM1 activity
[2]
  cell death by propidium iodide (P.I.) staining and phase contrast: susceptible to cellular dysfunction and death; also recorded: substantial increase in P.I. staining
[3]
  cell death judged by propidium iodide (P.I) and DAPI nuclear staining and SOX10 immunocytochemistry: completely insensitive; also recorded: no cell death
Schwann cells
  Intracellular NAD+ levels: do not change
Neuronal cultures
  effect of high dose on neuronal cultures: axonal degeneration and cell death within hours

## NC(=O)c1ccc[n+]([C@@H]2O[C@H](COP(=O)(O)O)C(O)C2F)c1 (some centres unmarked) [CZ-17, ara-F-NMN]
SARM1 [1]
  SARM1 activation in in vitro assays: can activate SARM1

## NC(=O)c1ccc[n+]([C@@H]2O[C@H](COP(=O)(O)O)C(O)C2O)c1 (some centres unmarked) [NMN, Nicotinamide Mononucleotide]
SARM1 [1]; Loreto et al., 2021
  SARM1 activation on binding in the allosteric site (ARM domain): potently activates it

## NC(=O)c1ccc[n+]([C@@H]2O[C@H](COP(O)(O)=S)C(O)C2O)c1 (some centres unmarked) [S-NMN]
SARM1 [1]
  SARM1 activation in in vitro assays: can activate SARM1

## O=C(NCc1ccc[n+](C2OC(COP(=O)([O-])O)C(O)C2O)c1)Nc1ccc([N+](=O)[O-])cc1 (centres unmarked) [VMN, Vacor Mononucleotide]
SARM1 [1]; Loreto et al., 2021
  SARM1 activation on binding in the allosteric site (ARM domain): potently activates SARM1

## sulfo-ara-F-NMN [CZ-48]
SARM1 [1]
  SARM1 activation in in vitro assays: can activate SARM1
SARM1 [4]
  SARM1 activation in cells: can activate SARM1

From patent publication US20260166017A1, “SARM1 INHIBITORS FOR USE IN THERAPY AND COSMETICS” (priority 2022, published 2026)
